Where two headings read alike, the source gives them in different places.
What was measured:
[1] = tested on: Sweetpotato Whitefly-Crawler (Bemisia Tabaci); assay: Insecticidal test for sweetpotato whitefly-crawler in foliar spray assay (col. BEMITA); assay type: in vivo; conditions: Bemisia tabaci, read-out: BEMITA 200 ppm (Corrected % Control, rating)
Method in brief: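 Cotton plants (one 3-5 cm true leaf) infested with whitefly eggs (100-300/plant), held 5-6 days at 82° F, 50% RH until crawlers developed. Sprayed to runoff at 200 ppm (acetone stock diluted in 0.025% Tween 20), four plants per treatment. Live nymphs counted after 8-9 days; % control by Abbott's correction versus solvent check.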

[2] = tested on: Green Peach Aphid (Myzus Persicae); assay: Insecticidal test for green peach aphid in foliar spray assay (col. MYZUPE); assay type: in vivo; conditions: Myzus persicae, 72 h, read-out: MYZUPE 200 ppm (Corrected % Control, rating)
Method in brief: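 Cabbage seedlings with 2-3 true leaves, infested with 20-50 wingless adult and nymph aphids one day earlier, sprayed to runoff at 200 ppm (acetone/methanol stock diluted in 0.025% Tween 20), four pots per treatment. After 3 days at ~25 °C, 40% RH, live aphids counted; corrected % control versus solvent-sprayed plants.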

| Structure (SMILES) | melting point | pest or weed control at 200 ppm ([1]; sweetpotato whitefly-crawler) | pest or weed control at 200 ppm ([2]; green peach aphid) | pest or weed control at 200 ppm ([1]; Abbott's correction formula) | pest or weed control at 200 ppm ([2]; Abbott's correction formula) |
| --- | --- | --- | --- | --- | --- |
| CN(CC[S+](C)[O-])C(=O)N(C)c1cnc(-c2cncc(F)c2)s1 (stereo not drawn) [Compound 83] | 95 to 99 °C | 80 to 100% | 80 to 100% |  |  |
| Cc1nc(-c2cncc(F)c2)sc1N(C)C(=O)C(C)CS(C)(=O)=O (stereo not drawn) [Compound 98] | 105 to 109 °C | 80 to 100% | 80 to 100% |  |  |
| CCS(=O)(=O)N1CCCC(C(=O)Nc2sc(-c3cccnc3)nc2C)C1 (stereo not drawn) [Compound 388] | 190 to 194 °C | 80 to 100% | 80 to 100% |  |  |
| Cc1nc(-c2cncc(F)c2)sc1NC(=O)CC[S+](C)[O-] (stereo not drawn) [Compound 147] | 181 to 184 °C | < 80% | 80 to 100% |  |  |
| CCN(C(=O)C1(C)CC1(Cl)Cl)c1sc(-c2cccnc2)nc1Cl (stereo not drawn) [Compound 536] | 144 to 146 °C |  |  | < 80% | < 80% |
| C=CC(=O)N(C(=O)OC(C)(C)C)c1sc(-c2cccnc2)nc1C [Compound 205] | 68 to 70 °C | 80 to 100% | 80 to 100% |  |  |
| CSCCC(=O)N(C)c1cnc(-c2ccc(Cl)nc2)s1 [Compound 70] | 160 to 164 °C | < 80% | < 80% |  |  |
| CCSCC(=O)N(C)c1sc(-c2cccnc2)nc1Cl [Compound 370] | 68 to 71 °C | 80 to 100% | 80 to 100% |  |  |
| CSC(C)(C)CC(=O)Nc1sc(-c2cccnc2)nc1Cl [Compound 488] | 113 to 115 °C |  |  | 80 to 100% | 80 to 100% |
| CC(C)(C)OC(=O)Nc1sc(-c2cncc(F)c2)nc1Br [Compound 297] | 164 to 166 °C | < 80% | < 80% |  |  |
| COC(=O)Nc1sc(-c2cccnc2)nc1C [Compound 202] | 159 to 160 °C | < 80% | < 80% |  |  |
| CCSCC(=O)Nc1sc(-c2cccnc2)nc1C [Compound 373] | 157 to 158 °C | 80 to 100% | 80 to 100% |  |  |
| CC(CS(C)(=O)=O)C(=O)Nc1sc(-c2cncc(F)c2)nc1Br (stereo not drawn) [Compound 307] | 185 to 188 °C | < 80% | 80 to 100% |  |  |
| CCN(C(=O)c1cnn(C)c1C(F)(F)F)c1sc(-c2cccnc2)nc1Cl [Compound 577] | 115 to 117 °C |  |  | < 80% | 80 to 100% |
| COc1cncc(-c2nc(C)c(NC(=O)OC(C)(C)C)s2)c1 [Compound 175] | 136 to 140 °C | < 80% | < 80% |  |  |
| CSCC(C)C(=O)Nc1sc(-c2cccnc2)nc1C (stereo not drawn) [Compound 56] | 132 to 136 °C | 80 to 100% | 80 to 100% |  |  |
| CN(C(=O)NCC[S+](C)[O-])c1cnc(-c2cncc(F)c2)s1 (stereo not drawn) [Compound 82] | 202 to 203 °C | < 80% | 80 to 100% |  |  |
| CSCCC(=O)Nc1sc(-c2cccnc2)nc1SC [Compound 589, 3-(methylthio)-N-(4-(methylthio)-2-(pyridin-3-yl)thiazol-5-yl)propanamide] | 72 to 74 °C |  |  | < 80% | < 80% |
| CCN(C(=O)c1cn(C)nc1C(F)(F)F)c1sc(-c2cccnc2)nc1Cl [Compound 547] | 110 to 111 °C |  |  | 80 to 100% | 80 to 100% |
| CSC(C)C(=O)N(C)c1sc(-c2cccnc2)nc1Cl (stereo not drawn) [Compound 361] | 97 to 104 °C | < 80% | 80 to 100% |  |  |
| Cc1nc(-c2cccnc2)sc1NC(=O)C(C)C[S+](C)[O-] (stereo not drawn) [Compound 92] | 160 to 163 °C | < 80% | 80 to 100% |  |  |
| CSCC(C)C(=O)N(C)c1sc(-c2cncc(Br)c2)nc1C (stereo not drawn) [Compound 296] | 79 to 81 °C | 80 to 100% | 80 to 100% |  |  |
| Cc1nc(-c2cncc(F)c2)sc1N(C)C(=O)C(C)C [Compound 41] | 123 °C | 80 to 100% | 80 to 100% |  |  |
| CCCC(C)(C)OC(=O)N(C)c1sc(-c2cccnc2)nc1C [Compound 491] | 65 to 69 °C |  |  | 80 to 100% | 80 to 100% |
| CN(C(=O)C(C)(C)C[S+](C)[O-])c1cnc(-c2cncc(F)c2)s1 (stereo not drawn) [Compound 85] | 155 to 159 °C | 80 to 100% | 80 to 100% |  |  |

| Structure (SMILES) | melting point | pest or weed control at 200 ppm ([1]; sweetpotato whitefly-crawler) | pest or weed control at 200 ppm ([2]; green peach aphid) | pest or weed control at 200 ppm ([1]; Abbott's correction formula) | pest or weed control at 200 ppm ([2]; Abbott's correction formula) |
| --- | --- | --- | --- | --- | --- |
| Cc1nc(-c2cccnc2)sc1NC(=O)OC(C)C(F)(F)F (stereo not drawn) [Compound 378] | 133 to 137 °C | 80 to 100% | 80 to 100% |  |  |
| Cc1nc(-c2cncc(F)c2)sc1N(C)C(=O)C1CCCN(C(=O)OC(C)(C)C)C1 (stereo not drawn) [Compound 580] | 51 to 60 °C |  |  | 80 to 100% | < 80% |
| C=CC(=O)Nc1sc(-c2cncc(F)c2)nc1C#N [Compound 502] | 231 to 232 °C |  |  | < 80% | < 80% |
| Cc1nc(-c2cccnc2)sc1NC(=O)OCc1ccccc1 [Compound 201] | 137 to 139 °C | < 80% | < 80% |  |  |
| Cc1cncc(-c2nc(C)c(NC(=O)OC(C)(C)C)s2)c1 [Compound 150] | 135 to 138 °C | < 80% | 80 to 100% |  |  |
| CCCCOC(=O)Nc1sc(-c2cccnc2)nc1C [Compound 377] | 108 to 110 °C | 80 to 100% | < 80% |  |  |
| CSCCC(=O)Nc1sc(-c2cccnc2)nc1C(F)(F)F [Compound 133] | 131 to 133 °C | < 80% | 80 to 100% |  |  |
| CN(C(=O)OC(C)(C)C)c1sc(-c2cncc(F)c2)nc1I [Compound 497] | 70 to 71 °C |  |  | 80 to 100% | 80 to 100% |
| Cc1nc(-c2cccnc2)sc1NC(=O)C(C)(C)C[S+](C)[O-] (stereo not drawn) [Compound 94] | 55 to 60 °C | < 80% | 80 to 100% |  |  |
| CC(C[S+](C)[O-])C(=O)N(C)c1sc(-c2cnc(Cl)c(F)c2)nc1Cl (stereo not drawn) [Compound 474] | 30 to 35 °C |  |  | < 80% | < 80% |
| Cc1nc(-c2cncc(F)c2)sc1NC(=O)C(C)CS(C)(=O)=O (stereo not drawn) [Compound 146] | 187 to 189 °C | < 80% | 80 to 100% |  |  |
| CN(C(=O)CCS(C)(=O)=O)c1sc(-c2cncc(F)c2)nc1Br [Compound 455] | 198 to 201 °C |  |  | 80 to 100% | 80 to 100% |
| CN(C(=O)CC[S+](C)[O-])c1sc(-c2cncnc2)nc1Cl (stereo not drawn) [Compound 510] | 137 to 140 °C |  |  | 80 to 100% | 80 to 100% |
| CC(C)C(=O)N(C)c1cnc(-c2cccnc2)s1 [Compound 24] | 113 to 114 °C | 80 to 100% | 80 to 100% |  |  |
| CSCCCC(=O)Nc1sc(-c2cccnc2)nc1C [Compound 374] | 110 to 112 °C | 80 to 100% | 80 to 100% |  |  |
| Cc1nc(-c2cccnc2)sc1NC(=O)C(C)CS(C)(=O)=O (stereo not drawn) [Compound 99] | 175 to 180 °C | 80 to 100% | 80 to 100% |  |  |
| CCN(C(=O)CCSC)c1cnc(-c2cncc(F)c2)s1 [Compound 308] | 78 to 81 °C | 80 to 100% | 80 to 100% |  |  |
| CSCC(C)(C)C(=O)N(C)c1cnc(-c2cccnc2)s1 [Compound 29] | 92 to 94 °C | 80 to 100% | 80 to 100% |  |  |
| CSCC(C)C(=O)N(C)c1cnc(-c2cncc(F)c2)s1 (stereo not drawn) [Compound 31] | 75 to 77 °C | 80 to 100% | 80 to 100% |  |  |
| CSCC(C)C(=O)Nc1sc(-c2cncc(C#N)c2)nc1C (stereo not drawn) [Compound 172] | 127 to 131 °C | 80 to 100% | 80 to 100% |  |  |
| Cc1nc(-c2cncc(F)c2)sc1NC(=O)C(C)C/S(C)=N\C#N (stereo not drawn) [Compound 163] | 75 to 81 °C | < 80% | 80 to 100% |  |  |
| CSCCN(C(=O)OC(C)(C)C)c1sc(-c2cccnc2)nc1C [Compound 567] | 63 to 68 °C |  |  | < 80% | 80 to 100% |
| Cc1nc(-c2cccnc2)sc1NC(=O)CCS(C)(=O)=O [Compound 100] | 222 to 224 °C | < 80% | 80 to 100% |  |  |
| CSCCC(=O)Nc1sc(-c2cncc(F)c2)nc1Cl [Compound 421] | 153 to 154 °C | < 80% | 80 to 100% |  |  |
